Assay results from patent US20220144812A1, “QUINOLINE DERIVATIVES AND THEIR USE FOR THE TREATMENT OF CANCER” (Epizyme, Inc., priority 2019, published 2022).

Columns and labels:
[1] = system: H3K18Ac in HB-CLS-2 cells; experiment: H3K18AC in-cell western (ICW) assay; format: cell-based; conditions: H3K18Ac in-cell western; read-out: CREBBP ICW IC50
In short: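 HB-CLS-2 cells seeded 16–24 hours before 2 hr compound treatment at 37° C, 5% CO2, then methanol-fixed. H3K18Ac detected with rabbit monoclonal primary (overnight, 4° C) and 800CW anti-rabbit secondary; DRAQ5 stained DNA. Plates imaged at 700 and 800 nm for integrated intensity; IC50 in μM.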

[2] = target: T1, EP300 (P300(1048-1664)) (Homo sapiens, UniProt Q09472); experiment: Biochemical assay for EP300, SAMDI; conditions: EP300, SAMDI; read-out: EP300 Biochemistry IC50
T1 construct: P300(1048-1664)
T1 sequence (Q09472 1048-1664): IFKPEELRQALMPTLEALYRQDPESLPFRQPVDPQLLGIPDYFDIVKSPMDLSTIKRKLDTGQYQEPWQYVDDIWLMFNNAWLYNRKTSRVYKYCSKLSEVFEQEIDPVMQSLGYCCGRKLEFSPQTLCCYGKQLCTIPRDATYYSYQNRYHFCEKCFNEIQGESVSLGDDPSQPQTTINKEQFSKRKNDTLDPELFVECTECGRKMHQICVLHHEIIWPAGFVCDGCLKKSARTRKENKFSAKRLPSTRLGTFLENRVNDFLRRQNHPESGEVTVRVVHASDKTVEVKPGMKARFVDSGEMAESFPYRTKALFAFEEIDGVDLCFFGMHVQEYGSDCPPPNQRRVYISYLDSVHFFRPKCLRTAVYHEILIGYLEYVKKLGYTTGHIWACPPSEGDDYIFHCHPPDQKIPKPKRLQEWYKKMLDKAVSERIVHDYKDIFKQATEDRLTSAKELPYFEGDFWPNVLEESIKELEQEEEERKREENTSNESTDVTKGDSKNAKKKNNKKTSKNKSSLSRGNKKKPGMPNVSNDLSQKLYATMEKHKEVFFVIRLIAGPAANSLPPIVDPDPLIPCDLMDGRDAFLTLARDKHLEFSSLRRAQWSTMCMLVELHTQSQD
From the text: The following example describes materials and methods relating to a biochemical assay for EP300. IC50 values (micromolar (μM)) are summarized in Table 1, Table 2, and Table 3 under the column labeled: “EP300 Biochemistry IC50 (micromolar).”

[3] = system: 639V bladder cell line; experiment: 7-day proliferation assay, 639V; format: cell-based; conditions: Homo sapiens, 168 h, 7 days, CellTiter-Glo
Protocol: (§1) This example describes methods and materials for 7-day proliferation assay.
(§2) A total of 22 bladder cell lines were used (see table below). Cell lines were cultured in recommended growth media according to supplier.
(§3) Cells were in culture media at a density optimized for a 7-day culture in a final volume of 150 μL per well in white opaque 96-well plates. Cells were allowed to adhere for several hours (4-6 h) then compounds were added with HPD300 Digital Dispenser and placed into the incubator at 37° C., 5% CO2 for 7 days. After 7 days incubation, 100 μL of CellTiter-Glo® Luminescent Cell Viability Assay (Promega-G7573) reagents were added per well. After 20 minutes incubation luminescence was measured in plate reader. IC50 were calculated from a non-linear logarithmic growth curve.
(§4) IC50 values (nanomolar (nM)) are summarized in the table below, which depicts the inhibitory effect of certain compounds in bladder cell lines.

[4] = system: HT1197 bladder cell line; experiment: 7-day proliferation assay, HT1197; format: cell-based; conditions: Homo sapiens, 168 h; HT1197, 7 days, CellTiter-Glo
Protocol: as §1, §2, §3, §4

[5] = system: HT1376 bladder cell line; experiment: 7-day proliferation assay, HT1376; format: cell-based; conditions: Homo sapiens, HT-1376, 168 h; HT1376, 7 days, CellTiter-Glo
Protocol: as §1, §2, §3, §4

[6] = system: SCABER bladder cell line; experiment: 7-day proliferation assay, SCABER; format: cell-based; conditions: Homo sapiens, 168 h, 7 days, CellTiter-Glo
Protocol: as §1, §2, §3, §4

[7] = system: SW1710 bladder cell line; experiment: 7-day proliferation assay, SW1710; format: cell-based; conditions: Homo sapiens, 168 h; SW1710, 7 days, CellTiter-Glo
Protocol: as §1, §2, §3, §4

[8] = system: UM-UC-3 bladder cell line; experiment: 7-day proliferation assay, UM-UC-3; format: cell-based; conditions: Homo sapiens, UMUC3, 168 h; UM-UC-3, 7 days, CellTiter-Glo
Protocol: as §1, §2, §3, §4

| SMILES | IC50 [1] | IC50 [2] | IC50 [3] | IC50 [4] | IC50 [5] | IC50 [6] | IC50 [7] | IC50 [8] |
| --- | --- | --- | --- | --- | --- | --- | --- | --- |
| CCn1ncc(CN(C)C(=O)c2cc(-c3ccc(NCCNC)c(C)n3)nc3ccc(Cl)cc23)c1C [Compound 3, 6-chloro-N-[(1-ethyl-5-methyl-1H-pyrazol-4-yl)methyl]-N-methyl-2-(6-methyl-5-{[2-(methylamino)ethyl]amino}pyridin-2-yl)quinoline-4-carboxamide] | 40 nM | 4.4 nM | 40 nM | 154 nM | 3890 nM | 249 nM | 290 nM | 792 nM |
| CCn1ncc(CN(C)C(=O)c2cc(-c3ccc(NC4CN(C)C4)c(C)n3)nc3ccc(Cl)cc23)c1C [Compound 480] | 23.1 nM | 6.5 nM | 57 nM | 112 nM | 1250 nM | 172 nM | 184 nM | 584 nM |
| CCc1noc(CN(C)C(=O)c2cc(-c3ccc(NCCNC)c(C)n3)nc3ccc(Cl)cc23)c1C [Compound 537] | 48.3 nM | 22 nM | 99.5 nM | 346 nM | 2760 nM | 252 nM | 190 nM | 1380 nM |
| CCc1ncc(CN(C)C(=O)c2cc(-c3ccc(NCCN(C)C)c(C)n3)nc3ccc(Cl)cc23)n1C [Compound 577] | 85.4 nM | 18.7 nM | 100 nM | 234 nM | 2070 nM | 182 nM | 143 nM | 1100 nM |
